Patent EP0448343A2, “Lipopeptide derivatives” (MERCK & CO. INC., priority 1990, dated 1991)
Structures can show the parent of a compound that is named as a salt.

Key:
[1] = test system: Pneumocystis carinii; experiment: Pneumocystis carinii pneumonia in immunosuppressed rats; type: in vivo, Sprague-Dawley rats; settings: eliminating P. carinii cysts in four days, dexasone-immunosuppressed rats, microscopic analysis of stained lung slides
Description: In a representative study, the effectiveness of Compound A-1a was determined. Sprague-Dawley rats (weighing approximately 250 grams) were immunosuppressed with dexasone in the drinking water (2.0 mg/L) and maintained on a low protein diet for five weeks to induce the development of pneumocystis pneumonia from a latent infection. […] Six rats (weighing approximately 150 grams) were injected twice daily for four days intravenously (I.V.) via the tail vein with Compound A-1a in 0.25 ml of vehicle (distilled water). A vehicle control was also carried out. All animals continued to receive dexasone in the drinking water and low protein diet during the treatment period. At the completion of the treatment, all animals were sacrificed, the lungs were removed and processed, and the extent of disease determined by microscopic analysis of stained slides.
In a similar experiment, except that the rats were injected intraperitoneally (I.P.) twice daily for four days, the animals were sacrificed, the lungs removed and processed, and the extent of disease determined by microscopic analysis of stained slides.

[2] = Solubility in water; type: physicochemical

SMILES | ED₉₀ ([1]; injected twice daily for four days intravenously (I.V.) via the tail vein) | solubility in water [2] | ED₉₀ ([1]; injected intraperitoneally (I.P.) twice daily for four days) | solubility [2]
CCC(C)CC(C)CCCCCCCCC(=O)NC1CC(O)C(O)NC(=O)C2C(O)CCN2C(=O)C(C(O)CC(N)=O)NC(=O)C(C(O)C(O)c2ccc(OP(=O)(O)O)cc2)NC(=O)C2CC(O)CN2C(=O)C(C(C)O)NC1=O (stereo not shown) [Compound A-1a, 1-[4,5-dihydroxy-N2-(10,12-dimethyl-1-oxotetradecyl)-ornithine-4-[3,4-dihydroxy-4′-O-phosphoryl-homotyrosine]-5-[3-hydroxyglutamine]-6-[3-hydroxyproline]-echinocandin B disodium salt] | approximately 0.6 mg/kg | > 40 mg/mL | – | –
CCC(C)CC(C)CCCCCCCCC(=O)NC1CC(O)CNC(=O)C2C(O)CCN2C(=O)C(C(O)CC(N)=O)NC(=O)C(C(O)C(O)c2ccc(OP(=O)(O)O)cc2)NC(=O)C2CC(O)CN2C(=O)C(C(C)O)NC1=O (stereo not shown) [Compound A-2a, 1-[4-hydroxy-N2-(10,12-dimethyl-1-oxotetradecyl)-ornithine]-4-[3-hydroxy-4′-O-phosphoryl-homotyrosine]-5-[3-hydroxyglutamine]-6-[3-hydroxyproline]echinocandin B disodium salt] | – | – | approximately 0.6 mg/kg | > 85 mg/mL
